Results as given in the supplement of paper PMC12076712.

How the values were obtained:
Experiment in all cases: pIC50, kinobeads binding competition
Details in all cases: cell material: Jurkat lysate
PKMYT1 = target: T1, PKMYT1 (UniProt Q99640)
T1 sequence (whole entry): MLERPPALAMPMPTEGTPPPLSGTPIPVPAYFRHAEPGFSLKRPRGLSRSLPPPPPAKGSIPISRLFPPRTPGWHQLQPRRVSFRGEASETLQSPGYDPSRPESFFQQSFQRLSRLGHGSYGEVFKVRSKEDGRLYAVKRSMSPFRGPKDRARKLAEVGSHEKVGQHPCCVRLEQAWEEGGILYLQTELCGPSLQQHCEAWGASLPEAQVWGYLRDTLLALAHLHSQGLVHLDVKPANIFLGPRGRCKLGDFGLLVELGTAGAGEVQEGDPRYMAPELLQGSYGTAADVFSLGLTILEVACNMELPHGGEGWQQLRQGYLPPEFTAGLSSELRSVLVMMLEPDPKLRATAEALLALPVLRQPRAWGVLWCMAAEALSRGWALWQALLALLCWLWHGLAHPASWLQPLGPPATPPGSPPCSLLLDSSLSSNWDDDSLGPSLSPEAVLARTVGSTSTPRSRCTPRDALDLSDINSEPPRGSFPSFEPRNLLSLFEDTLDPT

UniProt Q9P289 = target: UniProt Q9P289
PRKACB = PRKACB (UniProt P22694)
GAK = target: T2, GAK (UniProt O14976)
T2 sequence (whole entry): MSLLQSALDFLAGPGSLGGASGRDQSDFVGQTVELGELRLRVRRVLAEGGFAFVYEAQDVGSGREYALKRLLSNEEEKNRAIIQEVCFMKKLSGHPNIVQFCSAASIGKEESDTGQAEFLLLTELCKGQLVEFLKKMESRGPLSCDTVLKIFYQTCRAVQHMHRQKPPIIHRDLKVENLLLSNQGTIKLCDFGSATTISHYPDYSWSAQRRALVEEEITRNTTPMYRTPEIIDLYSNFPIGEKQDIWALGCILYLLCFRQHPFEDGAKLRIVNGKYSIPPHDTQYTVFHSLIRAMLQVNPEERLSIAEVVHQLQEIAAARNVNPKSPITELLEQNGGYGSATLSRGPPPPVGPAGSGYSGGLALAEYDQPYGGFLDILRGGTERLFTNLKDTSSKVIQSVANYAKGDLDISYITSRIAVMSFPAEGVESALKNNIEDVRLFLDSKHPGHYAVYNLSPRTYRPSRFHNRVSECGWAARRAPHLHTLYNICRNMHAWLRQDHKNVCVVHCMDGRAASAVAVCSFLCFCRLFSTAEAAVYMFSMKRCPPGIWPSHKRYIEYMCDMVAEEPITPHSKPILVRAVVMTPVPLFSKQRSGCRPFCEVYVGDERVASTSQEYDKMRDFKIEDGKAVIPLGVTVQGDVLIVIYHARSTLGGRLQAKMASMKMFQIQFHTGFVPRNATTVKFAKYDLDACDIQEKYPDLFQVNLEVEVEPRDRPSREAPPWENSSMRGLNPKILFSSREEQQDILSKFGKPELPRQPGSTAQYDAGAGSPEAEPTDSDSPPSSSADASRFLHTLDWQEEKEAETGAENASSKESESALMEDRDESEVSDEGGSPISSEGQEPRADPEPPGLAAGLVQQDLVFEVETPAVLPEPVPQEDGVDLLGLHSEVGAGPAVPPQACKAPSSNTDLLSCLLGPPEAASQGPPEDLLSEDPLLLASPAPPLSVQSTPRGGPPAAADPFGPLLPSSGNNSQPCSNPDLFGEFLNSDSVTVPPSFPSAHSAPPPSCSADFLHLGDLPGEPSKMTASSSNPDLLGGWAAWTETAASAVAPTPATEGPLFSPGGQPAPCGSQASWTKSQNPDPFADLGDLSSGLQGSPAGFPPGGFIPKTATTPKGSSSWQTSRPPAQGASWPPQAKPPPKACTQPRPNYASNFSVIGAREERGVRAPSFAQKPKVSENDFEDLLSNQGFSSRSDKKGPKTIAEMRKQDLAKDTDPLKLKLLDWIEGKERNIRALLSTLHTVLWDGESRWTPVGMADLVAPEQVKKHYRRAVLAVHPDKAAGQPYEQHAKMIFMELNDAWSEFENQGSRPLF

BMPR2 = target: T3, BMPR2 (UniProt Q13873)
T3 sequence (whole entry): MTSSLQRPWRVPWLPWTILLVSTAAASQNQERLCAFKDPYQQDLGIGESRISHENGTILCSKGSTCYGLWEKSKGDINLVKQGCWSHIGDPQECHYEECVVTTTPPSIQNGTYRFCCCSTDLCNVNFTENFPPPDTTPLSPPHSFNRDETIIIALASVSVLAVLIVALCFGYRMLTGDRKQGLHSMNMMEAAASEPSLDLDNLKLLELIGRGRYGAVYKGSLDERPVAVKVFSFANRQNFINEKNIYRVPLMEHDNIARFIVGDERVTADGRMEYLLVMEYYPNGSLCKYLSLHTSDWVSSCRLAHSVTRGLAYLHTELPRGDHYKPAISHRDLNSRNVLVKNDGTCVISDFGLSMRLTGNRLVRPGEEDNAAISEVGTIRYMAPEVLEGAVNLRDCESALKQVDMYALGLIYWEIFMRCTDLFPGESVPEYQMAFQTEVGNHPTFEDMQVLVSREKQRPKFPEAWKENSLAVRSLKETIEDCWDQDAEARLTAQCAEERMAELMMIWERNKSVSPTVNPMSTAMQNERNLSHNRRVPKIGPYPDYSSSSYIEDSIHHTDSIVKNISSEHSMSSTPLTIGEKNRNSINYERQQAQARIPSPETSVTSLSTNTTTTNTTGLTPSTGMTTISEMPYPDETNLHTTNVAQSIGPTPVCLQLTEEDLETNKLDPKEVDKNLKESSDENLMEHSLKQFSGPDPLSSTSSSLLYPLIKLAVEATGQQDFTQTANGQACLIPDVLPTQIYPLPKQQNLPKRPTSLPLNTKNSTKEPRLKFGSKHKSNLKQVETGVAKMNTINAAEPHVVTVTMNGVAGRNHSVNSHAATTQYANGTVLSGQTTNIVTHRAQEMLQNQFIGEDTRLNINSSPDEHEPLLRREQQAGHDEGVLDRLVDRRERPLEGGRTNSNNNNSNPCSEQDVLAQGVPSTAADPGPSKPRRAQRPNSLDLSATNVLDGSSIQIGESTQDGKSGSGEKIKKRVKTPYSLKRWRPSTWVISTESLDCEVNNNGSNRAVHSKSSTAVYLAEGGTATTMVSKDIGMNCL

PAK2 = PAK2 (UniProt Q13177)
UniProt Q5VT25 = target: UniProt Q5VT25

Measured: pIC50

Sequence of UniProt Q9P289 (Q9P289 whole entry, looked up): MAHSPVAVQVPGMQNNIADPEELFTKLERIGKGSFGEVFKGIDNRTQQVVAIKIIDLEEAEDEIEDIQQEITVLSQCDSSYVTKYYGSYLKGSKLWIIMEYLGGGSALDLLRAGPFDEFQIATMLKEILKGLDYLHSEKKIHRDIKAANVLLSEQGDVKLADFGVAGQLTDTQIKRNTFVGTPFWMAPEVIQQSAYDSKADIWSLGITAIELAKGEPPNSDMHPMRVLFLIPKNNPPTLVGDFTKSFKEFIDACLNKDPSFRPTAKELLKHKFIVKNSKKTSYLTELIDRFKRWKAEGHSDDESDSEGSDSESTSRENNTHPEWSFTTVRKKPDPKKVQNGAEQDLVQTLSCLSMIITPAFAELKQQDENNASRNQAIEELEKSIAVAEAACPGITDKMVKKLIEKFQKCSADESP
Sequence of UniProt Q5VT25 (Q5VT25 whole entry): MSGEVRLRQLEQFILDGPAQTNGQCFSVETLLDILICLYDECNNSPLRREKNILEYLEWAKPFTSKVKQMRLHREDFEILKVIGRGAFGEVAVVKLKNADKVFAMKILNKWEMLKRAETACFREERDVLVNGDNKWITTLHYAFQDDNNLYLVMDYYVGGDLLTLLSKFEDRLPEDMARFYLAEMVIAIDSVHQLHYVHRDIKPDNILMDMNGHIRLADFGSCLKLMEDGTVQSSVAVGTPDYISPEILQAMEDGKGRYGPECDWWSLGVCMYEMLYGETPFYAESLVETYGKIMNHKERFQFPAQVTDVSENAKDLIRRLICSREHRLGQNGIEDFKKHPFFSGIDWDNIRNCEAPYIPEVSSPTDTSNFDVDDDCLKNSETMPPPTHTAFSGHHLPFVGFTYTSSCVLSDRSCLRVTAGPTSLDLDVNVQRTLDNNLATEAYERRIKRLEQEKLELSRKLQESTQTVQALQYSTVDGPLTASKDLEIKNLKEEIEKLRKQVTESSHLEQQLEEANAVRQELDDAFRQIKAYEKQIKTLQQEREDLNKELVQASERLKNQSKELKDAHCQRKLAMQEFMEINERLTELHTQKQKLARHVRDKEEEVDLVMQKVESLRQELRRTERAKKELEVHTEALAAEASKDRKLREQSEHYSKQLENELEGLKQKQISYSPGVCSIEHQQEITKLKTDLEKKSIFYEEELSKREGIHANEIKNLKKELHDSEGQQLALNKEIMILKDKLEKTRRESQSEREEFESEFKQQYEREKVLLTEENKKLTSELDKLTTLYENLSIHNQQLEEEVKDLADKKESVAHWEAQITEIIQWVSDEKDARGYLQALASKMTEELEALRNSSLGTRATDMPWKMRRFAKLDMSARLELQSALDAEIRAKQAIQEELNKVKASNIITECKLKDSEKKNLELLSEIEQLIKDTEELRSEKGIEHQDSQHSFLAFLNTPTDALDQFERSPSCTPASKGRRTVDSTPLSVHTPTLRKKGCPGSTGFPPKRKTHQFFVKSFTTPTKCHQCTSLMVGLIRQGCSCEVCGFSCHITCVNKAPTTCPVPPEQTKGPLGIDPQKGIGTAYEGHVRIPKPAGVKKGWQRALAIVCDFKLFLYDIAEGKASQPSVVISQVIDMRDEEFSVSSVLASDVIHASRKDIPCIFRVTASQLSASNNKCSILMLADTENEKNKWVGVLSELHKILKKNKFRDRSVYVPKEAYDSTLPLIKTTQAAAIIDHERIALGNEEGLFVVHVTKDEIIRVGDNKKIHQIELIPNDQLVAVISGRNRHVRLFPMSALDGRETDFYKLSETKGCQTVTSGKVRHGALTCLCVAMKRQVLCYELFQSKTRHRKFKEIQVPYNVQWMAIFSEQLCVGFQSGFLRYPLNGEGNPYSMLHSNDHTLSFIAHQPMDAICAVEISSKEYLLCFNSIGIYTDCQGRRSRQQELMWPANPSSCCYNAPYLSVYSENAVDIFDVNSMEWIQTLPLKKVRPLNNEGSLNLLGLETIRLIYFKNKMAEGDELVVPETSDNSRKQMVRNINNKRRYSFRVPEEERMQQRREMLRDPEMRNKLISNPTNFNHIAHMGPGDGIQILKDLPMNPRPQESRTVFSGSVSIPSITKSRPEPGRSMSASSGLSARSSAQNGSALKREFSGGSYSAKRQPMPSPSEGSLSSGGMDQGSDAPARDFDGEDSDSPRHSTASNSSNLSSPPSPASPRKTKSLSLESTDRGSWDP
Sequence of PAK2 (Q13177 whole entry): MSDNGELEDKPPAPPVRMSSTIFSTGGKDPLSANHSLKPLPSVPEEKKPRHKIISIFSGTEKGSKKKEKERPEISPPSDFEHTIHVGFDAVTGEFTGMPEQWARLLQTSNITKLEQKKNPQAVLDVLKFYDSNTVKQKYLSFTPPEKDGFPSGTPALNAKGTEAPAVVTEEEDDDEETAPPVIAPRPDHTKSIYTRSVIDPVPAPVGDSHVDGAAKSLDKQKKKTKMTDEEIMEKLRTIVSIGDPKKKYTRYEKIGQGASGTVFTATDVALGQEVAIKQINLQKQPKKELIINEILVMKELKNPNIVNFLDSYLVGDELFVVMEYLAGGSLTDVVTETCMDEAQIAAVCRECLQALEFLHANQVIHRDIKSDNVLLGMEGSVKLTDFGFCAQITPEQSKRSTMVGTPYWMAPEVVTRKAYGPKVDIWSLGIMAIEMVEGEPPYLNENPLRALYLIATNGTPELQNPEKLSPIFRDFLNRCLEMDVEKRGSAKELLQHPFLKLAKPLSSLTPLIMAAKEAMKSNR

CCc1cnn2c(NCc3ccc[n+]([O-])c3)cc(N3CCCC[C@H]3CCO)nc12 [dinaciclib]
< 4.52: all assays above
